Source: paper PMC7438494 (Communications Biology, 2020)
“And” between values parts separate entries of the source, which are not always exact repeats. Equal entries are not always repeated. Where two headings read alike, the source gives them in different places.

Experiments:
yeast F1Fo ATP synthase = yeast F1Fo ATP synthase (Saccharomyces cerevisiae, UniProt P00854+P61829); assay: biochemical; details: for ATP hydrolysis activity, Exp 1-3: upper block, head prints SMP, listed as Og-A
[1] = molecular target: yeast mitochondrial ATP synthase (yeast SMP) (Saccharomyces cerevisiae, UniProt P00854+P61829); assay: biochemical; details: for ATP hydrolysis activity, Exp 1-3: SMP, lower block, listed as Og-A
[2] = molecular target: yeast mitochondrial ATP synthase (Saccharomyces cerevisiae, UniProt P00854+P61829); assay: biochemical; details: for Cyanide sensitive: 60 min
human ATP synthase = human ATP synthase (Homo sapiens, UniProt P00846+P05496); assay: biochemical; assay type: biochemical
[3] = molecular target: yeast mitochondrial ATP synthase (Saccharomyces cerevisiae, UniProt P61829); assay: Uncoupling of the yeast mitochondrial ATP synthase; assay type: biochemical; details: high concentrations
[4] = Oligomycin-A 0.05 μM, cyanide sensitive, yeast frozen mito
[5] = Oligomycin-A 0.6 μM, cyanide sensitive, yeast frozen mito
[6] = 1 ug/ml Oligomycin, […], frozen human mito
[7] = read-out: % activity, cyanide sensitive ATP synthesis

CC[C@@H]1/C=C/C=C/C[C@H](C)[C@@H](O)[C@](C)(O)C(=O)[C@H](C)[C@@H](O)[C@H](C)C(=O)[C@H](C)[C@@H](O)[C@H](C)/C=C/C(=O)O[C@H]2[C@@H](C)[C@@H](CC1)O[C@@]1(CC[C@@H](C)[C@@H](C[C@H](C)O)O1)[C@@H]2C [Oligomycin A]
inhibition of ATP hydrolysis by yeast F1Fo (extent) (yeast F1Fo ATP synthase; F1Fo in bicelles, maximal): 85%
IC50 (yeast F1Fo ATP synthase; F1Fo in bicelles, n = 3, read-out: IC50 ± SEM, ATP hydrolysis, purified yeast F1Fo): 107 ± 1.1 nM
IC50 (yeast F1Fo ATP synthase; F1Fo in bicelles, read-out: IC50, ATP hydrolysis, purified yeast F1Fo): ~100 nM
EC50 (yeast F1Fo ATP synthase; reconstituted in bicelles, n = 3, read-out: EC50, inhibition of the ATPase activity of purified yeast ATP synthase): 107 ± 1.1 nM
ATP hydrolysis activity, Exp 1-3 (yeast F1Fo ATP synthase; Og-A 0.0101128 uM): 0.9127 and 0.9068 and 0.9174
ATP hydrolysis activity, Exp 1-3 (yeast F1Fo ATP synthase; Og-A 0.0505638 uM): 0.7469 and 0.6678 and 0.6555
ATP hydrolysis activity, Exp 1-3 (yeast F1Fo ATP synthase; Og-A 0.252819 uM): 0.4366 and 0.4305 and 0.5
ATP hydrolysis activity, Exp 1-3 (yeast F1Fo ATP synthase; Og-A 1.26409 uM): 0.3568 and 0.3661 and 0.3907
ATP hydrolysis activity, Exp 1-3 (yeast F1Fo ATP synthase; Og-A 6.32047 uM): 0.2269 and 0.2038 and 0.2221
ATP hydrolysis activity, Exp 1-3 (yeast F1Fo ATP synthase; Og-A 15.8012 uM): 0.2056 and 0.2009 and 0.2105
ATP hydrolysis activity, Exp 1-3 (yeast F1Fo ATP synthase; Og-A 31.6024 uM): 0.2364 and 0.1839 and 0.1796
ATP hydrolysis activity, Exp 1-3 ([1]; Og-A 0.0101 uM): 0.8851 and 0.8864 and 0.89
ATP hydrolysis activity, Exp 1-3 ([1]; Og-A 0.0506 uM): 0.8632 and 0.8483 and 0.878
ATP hydrolysis activity, Exp 1-3 ([1]; Og-A 0.2528 uM): 0.7765 and 0.7817 and 0.7989
ATP hydrolysis activity, Exp 1-3 ([1]; Og-A 0.632 uM): 0.6228 and 0.6613 and 0.6108
ATP hydrolysis activity, Exp 1-3 ([1]; Og-A 1.2641 uM): 0.4529 and 0.4416 and 0.4356
ATP hydrolysis activity, Exp 1-3 ([1]; Og-A 6.3205 uM): 0.1135 and 0.1053 and 0.1112
ATP hydrolysis activity, Exp 1-3 ([1]; Og-A 15.8012 uM): 0.0859 and 0.0937 and 0.0705
ATP hydrolysis activity, Exp 1-3 ([1]; Og-A 31.6024 uM): 0.097 and 0.0697 and 0.0822
IC50 ([1]; n = 3, read-out: IC50 ± SEM, ATP hydrolysis, yeast SMP): ~1100 nM and 1100 nM
remaining activity at 0.0005 µM ([2]; Oligomycin-A 0.0005 μM, cyanide sensitive, yeast frozen mito): 110%
remaining activity at 0.005 µM ([2]; Oligomycin-A 0.005 μM, cyanide sensitive, yeast frozen mito): 101%
Cyanide sensitive ([2]; Oligomycin-A 0.01 μM, yeast frozen mito): 21.2843 nmol/min/mg and 38.526 nmol/min/mg and 37.46 nmol/min/mg
inhibition at 0.05 µM [2, 4]: 16.9%
remaining activity at 0.05 µM [2, 4]: 83.1%
Cyanide sensitive ([2]; Oligomycin-A 0.05 μM, yeast frozen mito): 16.4622 nmol/min/mg and 31.3703 nmol/min/mg
Cyanide sensitive ([2]; Oligomycin-A 0.08 μM, yeast frozen mito): 15.1607 nmol/min/mg and 21.1456 nmol/min/mg and 29.9684 nmol/min/mg
Cyanide sensitive ([2]; Oligomycin-A 0.2 μM, yeast frozen mito): 6.587 nmol/min/mg and 5.248 nmol/min/mg and 9.417 nmol/min/mg
inhibition at 0.6 µM [2, 5]: 95.6%
remaining activity at 0.6 µM [2, 5]: 4.43%
Cyanide sensitive ([2]; Oligomycin-A 0.6 μM, yeast frozen mito): 0.8771 nmol/min/mg and 1.272 nmol/min/mg and 1.435 nmol/min/mg
inhibition at 1 µM ([2]; Oligomycin-A 1 μM, cyanide sensitive, yeast frozen mito, read-out: % inhibition): 100%
inhibition at 2 µM ([2]; Oligomycin-A 2 μM, cyanide sensitive, yeast frozen mito): 100%
IC50 ([2]; n = 3, read-out: IC50 ± SEM, ATP synthesis, yeast mitochondria): 100 ± 8 nM
inhibition at 1 µM ([2]; read-out: inhibition of cyanide sensitive ATP synthesis, yeast mitochondria): 98%
extent of inhibition of ATP synthesis of the human enzyme (human ATP synthase): nearly completely
% activity (human ATP synthase; [6]): 19.1774%
% inhibition (human ATP synthase; [6]): 80.8226%
ATP produced, nmol/min/mg (human ATP synthase; [6]): 1.61 nmol/min/mg
ATP produced, pmol/min/mg (human ATP synthase; [6]): 1614.78 pmol/min/mg
activity at 1 µg/mL (human ATP synthase; [6]): 19.2%
inhibition at 1 µg/mL (human ATP synthase; [6]): 80.8%
IC50 (human ATP synthase; IC50 ± SEM, ATP synthesis, human mitoplasts): 5.4 ± 0.6 nM
remaining activity at 0.001 µM (human ATP synthase; [7]): 70.9%
remaining activity at 0.007 µM (human ATP synthase; [7]): 34.6%
remaining activity at 0.01 µM (human ATP synthase; [7]): 18.4%
inhibition at 1.25 µM (human ATP synthase; read-out: inhibition of cyanide sensitive ATP synthesis, human mitoplasts): 98%

venturicidin
uncoupling of the yeast mitochondrial ATP synthase [3]: uncouples
